Experimental data taken from patent US12716903B2, “Microfluidic chip-based, universal coagulation assay” (Perosphere Technologies Inc., priority 2014, dated 2026).

Test system: blood
Test: Blood clotting time on microfluidic closed device chip, by IR light transmission and impedance
Design: species or system patient
Conditions: PER977 added to blood sample containing edoxaban, both at 300 ng/mL; IR and impedance curves; room temperature
Experimental: For detection of clotting through measurement of impedances, a sample is loaded into the chip, the chip is inserted into its reader, and the pogo pins connecting to the internal impedance electrodes connected via Kelvin clip leads to a QuadTech 1920 LCR meter. The magnitude and the phase of the complex impedance of the blood sample were recorded at 15 second intervals. […] The peaks or plateaus indicated a measure for the clotting time.
For optical clot detection, IR LED and photodiode are inserted into their reader parts as described above. A blood sample is pipetted into the chip and the chip placed into the reader. The sample is continuously illuminated with IR light at 1,300 nm. At time intervals of typically 100 ms, the voltage drop across a 1 MOhm resistor caused by the photocurrent of the photodiode was recorded. Voltages typically measured several volts. Clotting of the sample caused the transmitted light and the photocurrent to vary over time. Characteristic peaks of the transmitted light curve indicated a measure for the clotting time.
Blood was harvested from a patient using commercially available lancing devices. 10 μL of blood were obtained and pipetted into an Eppendorf tube. […]
Edoxaban is a commercially available anticoagulant. […] The chip was inserted into its reader, and both IR light and impedance measurements were immediately recorded at room temperature (approximately 27° C.). […]

## N=C(N)NCCC[C@H](N)C(=O)NCCCN1CCN(CCCNC(=O)[C@@H](N)CCCNC(=N)N)CC1 [PER977, ciraparantag]
  characteristic peak indicative of the sample clotting time: 2 min
  occurrence of a local minimum around 12 minutes: suppresses the occurrence of a local minimum
